From ChEMBL document CHEMBL4024727, “Synthesis and antimycobacterial screening of new thiazolyl-oxazole derivatives” (Eur J Med Chem, 2017)
pIC50: −log10 of the molar value. In brackets after ≈: the same amount, converted by molar mass.

Key:
Bacillus subtilis [1] = test: Growth inhibition of Bacillus subtilis NCIM 2162 at 30 ug/ml measured after 12 hrs relative to control; assay type: functional; details: NCIM 2162, 12 h, read-out: GI
Escherichia coli [2] = test: Growth inhibition of Escherichia coli NCIM 2576 at 30 ug/ml measured after 8 hrs relative to control; assay type: functional; details: NCIM 2576, 8 h, read-out: GI
[3] = (§1) Growth inhibition of human PANC1 cells by MTT assay; assay type: cell-based, PANC-1; details: PANC-1 cells
PANC-1 = test: as §1; assay type: cell-based; details: panc-1
[4] = test system: Mycobacterium tuberculosis; test: Growth inhibition of Mycobacterium bovis BCG ATCC 35743 at 30 ug/ml by nitrate reductase based two-fold dilution assay relative to control; assay type: functional; details: BCG str. ATCC 35743, read-out: GI
[5] = test system: Mycobacterium tuberculosis; test: Growth inhibition of Mycobacterium tuberculosis H37Ra ATCC 25177 at 10 ug/ml by XTT dye based two-fold dilution method relative to control; assay type: functional; details: read-out: GI
Pseudomonas fluorescens [6] = test: Growth inhibition of Pseudomonas fluorescens NCIM 2059 at 30 ug/ml measured after 8 hrs relative to control; assay type: functional; details: NCIM 2059, 8 h, read-out: GI
Staphylococcus aureus [7] = test: Growth inhibition of Staphylococcus aureus NCIM 2602 at 1 ug/ml measured after 12 hrs relative to control; assay type: functional; details: NCIM 2602, 12 h, read-out: GI
[8] = (§2) Growth inhibition of human A549 cells by MTT assay; assay type: cell-based; details: A549 cells
A549 = test: as §2; assay type: cell-based; details: a549
Escherichia coli [9] = test: Antibacterial activity against Escherichia coli NCIM 2576 measured after 8 hrs; assay type: functional; details: NCIM 2576, 8 h
Escherichia coli [10] = test: Growth inhibition of Escherichia coli NCIM 2576 at 10 ug/ml measured after 8 hrs relative to control; assay type: functional; details: NCIM 2576, 8 h, read-out: GI
[11] = Selectivity index, ratio of GI50 for human PANC1 cells to MIC for Mycobacterium bovis BCG ATCC 35743 dormant stage; assay type: toxicity; details: PANC-1 cells, read-out: Selectivity Index
Bacillus subtilis [12] = test: Growth inhibition of Bacillus subtilis NCIM 2162 at 1 ug/ml measured after 12 hrs relative to control; assay type: functional; details: NCIM 2162, 12 h, read-out: GI
[13] = Selectivity index, ratio of GI50 for human HeLa cells to MIC for Mycobacterium tuberculosis H37Ra ATCC 25177 dormant stage; assay type: toxicity, cell-based; details: read-out: Selectivity Index
[14] = test system: Mycobacterium tuberculosis; test: Growth inhibition of Mycobacterium tuberculosis H37Ra ATCC 25177 at 30 ug/ml by XTT dye based two-fold dilution method relative to control; assay type: functional; details: read-out: GI
[15] = test system: Mycobacterium tuberculosis; test: Growth inhibition of Mycobacterium tuberculosis H37Ra ATCC 25177 at 3 ug/ml by XTT dye based two-fold dilution method relative to control; assay type: functional; details: read-out: GI
Staphylococcus aureus [16] = test: Growth inhibition of Staphylococcus aureus NCIM 2602 at 30 ug/ml measured after 12 hrs relative to control; assay type: functional; details: NCIM 2602, 12 h, read-out: GI
Pseudomonas fluorescens [17] = test: Growth inhibition of Pseudomonas fluorescens NCIM 2059 at 10 ug/ml measured after 8 hrs relative to control; assay type: functional; details: NCIM 2059, 8 h, read-out: GI
[18] = test system: Mycobacterium tuberculosis; test: Antitubercular activity against Mycobacterium bovis BCG ATCC 35743 dormant stage by nitrate reductase based two-fold dilution assay; assay type: functional; details: BCG str. ATCC 35743
Pseudomonas fluorescens [19] = test: Growth inhibition of Pseudomonas fluorescens NCIM 2059 at 1 ug/ml measured after 8 hrs relative to control; assay type: functional; details: NCIM 2059, 8 h, read-out: GI
[20] = Selectivity index, ratio of GI50 for human A549 cells to MIC for Mycobacterium bovis BCG ATCC 35743 dormant stage; assay type: toxicity; details: read-out: Selectivity Index
[21] = test system: Mycobacterium tuberculosis; test: Antitubercular activity against Mycobacterium tuberculosis H37Ra ATCC 25177 dormant stage by XTT dye based two-fold dilution method; assay type: functional
[22] = Selectivity index, ratio of GI50 for human A549 cells to MIC for Mycobacterium tuberculosis H37Ra ATCC 25177 dormant stage; assay type: toxicity; details: read-out: Selectivity Index
Bacillus subtilis [23] = test: Growth inhibition of Bacillus subtilis NCIM 2162 at 10 ug/ml measured after 12 hrs relative to control; assay type: functional; details: NCIM 2162, 12 h, read-out: GI
Staphylococcus aureus [24] = test: Antibacterial activity against Staphylococcus aureus NCIM 2602 measured after 12 hrs; assay type: functional; details: NCIM 2602, 12 h
[25] = test system: Mycobacterium tuberculosis; test: Growth inhibition of Mycobacterium bovis BCG ATCC 35743 at 1 ug/ml by nitrate reductase based two-fold dilution assay relative to control; assay type: functional; details: BCG str. ATCC 35743, read-out: GI
Staphylococcus aureus [26] = test: Growth inhibition of Staphylococcus aureus NCIM 2602 at 10 ug/ml measured after 12 hrs relative to control; assay type: functional; details: NCIM 2602, 12 h, read-out: GI
[27] = test system: Mycobacterium tuberculosis; test: Growth inhibition of Mycobacterium bovis BCG ATCC 35743 at 10 ug/ml by nitrate reductase based two-fold dilution assay relative to control; assay type: functional; details: BCG str. ATCC 35743, read-out: GI
[28] = (§3) Growth inhibition of human HeLa cells by MTT assay; assay type: cell-based; details: HeLa cells
HeLa = test: as §3; assay type: cell-based; details: hela
Pseudomonas fluorescens [29] = test: Antibacterial activity against Pseudomonas fluorescens NCIM 2059 measured after 8 hrs; assay type: functional; details: NCIM 2059, 8 h
[30] = Selectivity index, ratio of GI50 for human HeLa cells to MIC for Mycobacterium bovis BCG ATCC 35743 dormant stage; assay type: toxicity, cell-based; details: read-out: Selectivity Index
Bacillus subtilis [31] = test: Antibacterial activity against Bacillus subtilis NCIM 2162 measured after 12 hrs; assay type: functional; details: NCIM 2162, 12 h
[32] = Selectivity index, ratio of GI50 for human PANC1 cells to MIC for Mycobacterium tuberculosis H37Ra ATCC 25177 dormant stage; assay type: toxicity; details: PANC-1 cells, read-out: Selectivity Index
Escherichia coli [33] = test: Growth inhibition of Escherichia coli NCIM 2576 at 1 ug/ml measured after 8 hrs relative to control; assay type: functional; details: NCIM 2576, 8 h, read-out: GI

## Cc1nc(-c2ccc(F)cc2)oc1-c1csc(Cc2cccc(Cl)c2)n1
Bacillus subtilis [1]
  inhibition of growth at 30 µg/mL: 93.7%
Escherichia coli [2]
  inhibition of growth at 30 µg/mL: 91.2%
[3]
  GI50: > 250 µg/mL
PANC-1
  GI90: > 250 µg/mL
[4]
  inhibition of growth at 30 µg/mL: 97%
[5]
  inhibition of growth at 10 µg/mL: 92%
Pseudomonas fluorescens [6]
  inhibition of growth at 30 µg/mL: 93.3%
Staphylococcus aureus [7]
  inhibition of growth at 1 µg/mL: 71.7%
[8]
  GI50: > 250 µg/mL
A549
  GI90: > 250 µg/mL
Escherichia coli [9]
  MIC: 69.6 µM (≈ 26.8 µg/mL)
Escherichia coli [10]
  inhibition of growth at 10 µg/mL: 86.1%
[11]
  selectivity ratio: 104
Bacillus subtilis [12]
  inhibition of growth at 1 µg/mL: 79.7%
[13]
  selectivity ratio: 59
[14]
  inhibition of growth at 30 µg/mL: 96%
[15]
  inhibition of growth at 3 µg/mL: 93%
Staphylococcus aureus [16]
  inhibition of growth at 30 µg/mL: 95.6%
Pseudomonas fluorescens [17]
  inhibition of growth at 10 µg/mL: 85.7%
[18]
  pIC50: 6.44
  MIC90: 6.26 µM (≈ 2.41 µg/mL)
Pseudomonas fluorescens [19]
  inhibition of growth at 1 µg/mL: 72.5%
[20]
  selectivity ratio: 104
[21]
  pIC50: 6.64
  MIC90: 7.38 µM (≈ 2.84 µg/mL)
[22]
  selectivity ratio: 88
Bacillus subtilis [23]
  inhibition of growth at 10 µg/mL: 85.4%
Staphylococcus aureus [24]
  MIC: 55.6 µM (≈ 21.4 µg/mL)
[25]
  inhibition of growth at 1 µg/mL: 98%
Staphylococcus aureus [26]
  inhibition of growth at 10 µg/mL: 82.4%
[27]
  inhibition of growth at 10 µg/mL: 95%
[28]
  GI50: 168 µg/mL (≈ 436 µM)
HeLa
  GI90: > 250 µg/mL
Pseudomonas fluorescens [29]
  MIC: 57.4 µM (≈ 22.1 µg/mL)
[30]
  selectivity ratio: 70
Bacillus subtilis [31]
  MIC: 53.8 µM (≈ 20.7 µg/mL)
[32]
  selectivity ratio: 88
Escherichia coli [33]
  inhibition of growth at 1 µg/mL: 70.5%
